Assays:
[1] = target: T1, Mcl-1 (Homo sapiens, UniProt Q07820); conditions: versus Bcl-2, Bcl-xL, Bcl-w; cited from earlier work
Target sequence in this assay (Q07820 whole entry, species assumed): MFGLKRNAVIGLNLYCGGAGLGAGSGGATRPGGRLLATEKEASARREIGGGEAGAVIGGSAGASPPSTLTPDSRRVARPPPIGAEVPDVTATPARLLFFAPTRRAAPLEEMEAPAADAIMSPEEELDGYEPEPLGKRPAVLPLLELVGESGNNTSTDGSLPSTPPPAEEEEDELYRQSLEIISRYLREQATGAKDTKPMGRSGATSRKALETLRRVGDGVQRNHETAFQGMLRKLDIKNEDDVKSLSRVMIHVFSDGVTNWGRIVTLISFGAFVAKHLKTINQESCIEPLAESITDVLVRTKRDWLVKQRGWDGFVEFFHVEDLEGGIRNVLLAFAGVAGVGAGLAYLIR

[2] = target: T2, A1 (Homo sapiens, UniProt Q16548); conditions: versus Bcl-2, Bcl-xL, Bcl-w; cited from earlier work
T2 sequence (Q16548 1-175): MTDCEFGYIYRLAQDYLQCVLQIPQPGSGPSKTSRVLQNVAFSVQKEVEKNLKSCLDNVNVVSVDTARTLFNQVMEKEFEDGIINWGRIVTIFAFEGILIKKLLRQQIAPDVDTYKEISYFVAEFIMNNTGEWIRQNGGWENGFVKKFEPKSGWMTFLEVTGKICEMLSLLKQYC

[3] = target: T1, Mcl-1; assay: Fluorescence polarization (FP)-based binding assay, Mcl-1; conditions: FP saturation, 2 nM probe, increasing protein concentrations; read-out: Kd of fluorescent probe to Mcl-1
Target sequence in this assay (Q07820 whole entry): as the sequence (Q07820 whole entry, species assumed) above

Compound | specificity over Mcl-1 [1] | specificity over A1 [2] | Kd [3] [nM]
CN(C)CC[C@H](CSc1ccccc1)Nc1ccc(S(=O)(=O)NC(=O)c2ccc(N3CCN(Cc4ccccc4-c4ccc(Cl)cc4)CC3)cc2)cc1[N+](=O)[O-] [ABT-737] | high specificity | high specificity | 
Flu-BID: homemade fluorescein labeled BID (79-99) peptide, fluorescent probe for Mcl-1 FP assay |  |  | 6.8 ± 1.5
CC1(C)CCC(c2ccc(Cl)cc2)=C(CN2CCN(c3ccc(C(=O)NS(=O)(=O)c4ccc(N[C@H](CCN5CCOCC5)CSc5ccccc5)c(S(=O)(=O)C(F)(F)F)c4)cc3)CC2)C1 [ABT-263] | high specificity | high specificity | 

Source: patent US9096625B2, “BCL-2/BCL-XL inhibitors and therapeutic methods using the same” (THE REGENTS OF THE UNIVERSITY OF MICHIGAN, priority 2013, dated 2015)
